# According to patent US6713266B1 (Isodiagnostika Inc., priority 1998, dated 2004):
# Legend:
# MoAb CSA-2G9 = assay: Inhibition ELISA to the CSA-DVS-HSA conjugate, MoAb; type: binding, mouse
# Procedure: (§1) Inhibition ELISA Protocol:
# (§2) 1. Use Falcon Pro-bind immunoplates.
# (§3) 2. Dilute coating antigen to 1 μg/mL in carbonate-bicarbonate buffer. Add 100 μL per well and incubate overnight at 4° C.
# (§4) 3. On the same day prepare inhibiting antigen tubes. Aliquot antibodies into glass test tubes. Prepare appropriate antigen concentration in ethanol and add to aliquoted antibody at 10 μL ethanol solution/250 μL antibody. Vortex tubes and incubate overnight at 4° C.
# (§5) 4. Shake out wells and wash 3× with 200 μL PBS/0.05% TWEEN™ (polyoxyethylene-sorbitol) (v/v) per well.
# (§6) 5. Add 200 μL blocking buffer per well (PBS/2% BSA (w/v)). Incubate 60 min at room temperature.
# (§7) 7. Transfer contents of inhibition tubes to antigen-coated plate, 100 μL per well. Incubate 60 min at 37° C.
# (§8) 9. Dilute alkaline phosphatase conjugated anti-mouse IgG (Pierce cat#31322) in PBS/0.1% TWEEN™ (polyoxyethylene-sorbitol) (v/v) to 1:5000 concentration. Add 100 μL per well and incubate at 37° C. for 60 min.
# (§9) 11. […] Add 100 μL per well and incubate in the dark at room temperature. Absorbance can be read at 405 nm at approximately 15-min intervals.
# MoAb CSA-1H6 = assay: as above; type: binding, mouse
# Procedure: as §1, §2, §3, §4, §5, §6, §7, §8, §9
# [1] = tested on: Mouse polyclonal sera (AM19-9-DVS-KLH immunogen); assay: Inhibition ELISA, AM19-9-DVS-HSA coated plates, mouse polyclonal sera; type: binding
# Procedure: as §1, §2, §3, §4, §5, §6, §7
# (§10) 9. […] Add 100 μL per well and incubate at 37° C. for 60 min.
# as §9
# [2] = tested on: Mouse polyclonal sera (AM1-DVS-KLH immunogens); assay: Antigen panel (direct) ELISA, mouse polyclonal sera; type: binding
# Procedure: (§11) 1. Use Falcon Pro-bind immunoplate.
# (§12) 2. Dilute coating antigen (Ag) to 1.0 μg/mL in carbonate-bicarbonate buffer. Use glass tubes.
# (§13) 3. Add 100 μL to each well of plate. Store overnight at 4° C.
# as §5
# (§14) 5. Add blocking buffer, 200 μL per well (PBS/2% BSA (w/v)). Incubate for 60 min at 37° C.
# (§15) 7. Add 100 μL per well of test antibody appropriately diluted in PBS/0.1% Tween (v/v). Incubate 60 min at 37° C.
# (§16) 9. Dilute alkaline phosphatase conjugated anti-mouse IgG (Pierce cat #31322) in PBS/0.1% TWEEN™ (polyoxyethylene-sorbitol) (v/v) to 1:2000 concentration. Add 100 μL per well and incubate at 37° C. for 60 min.
# (§17) 10. Wash 3× as in step 4.
# as §9
# [3] = tested on: Mouse polyclonal sera (AM9-9-DVS-KLH immunogen); assay: as above; type: binding
# Procedure: as §11, §12, §13, §5, §14, §15, §16, §17, §9
# [4] = tested on: Mouse polyclonal sera (AM19-9-DVS-KLH immunogens); assay: as above; type: binding
# Procedure: as §11, §12, §13, §5, §14, §15, §16, §17, §9
# [5] = tested on: Mouse polyclonal sera (CSA-DVS-KLH immunogen); assay: as above; type: binding; conditions: KLH coated ELISA plates
# Procedure: as §11, §12, §13, §5, §14, §15, §16, §17, §9
# [6] = tested on: Rabbit polyclonal sera (AM19-1-DVS-KLH (1) immunogen); assay: Inhibition ELISA, AM19-1-DVS (1) HSA coated plate, rabbit polyclonal sera; type: binding
# Procedure: as §1, §2, §3, §4, §5, §6, §7, §10, §9
# The AM19-1-DVS (1) conjugate was also used to immunize rabbits.
# [7] = tested on: Mouse polyclonal sera (AM19-1-DVS (2) - KLH immunogen); assay: Inhibition ELISA, AM19-1-DVS (2) HSA coated plate, mouse polyclonal sera; type: binding
# Procedure: as §1, §2, §3, §4, §5, §6, §7, §10, §9
# [8] = tested on: Mouse monoclonal antibody CSA-1H6; assay: Antigen panel (direct) ELISA, MoAb tissue culture supernatant; type: binding
# Procedure: as §11, §12, §13, §5, §14, §15, §16, §17, §9
# [9] = tested on: Mouse monoclonal antibody AM1-7F5; assay: as above; type: binding
# Procedure: as §11, §12, §13, §5, §14, §15, §16, §17, §9
# [10] = tested on: Mouse monoclonal antibody CSA-2G9; assay: as above; type: binding
# Procedure: as §11, §12, §13, §5, §14, §15, §16, §17, §9
# [11] = tested on: Mouse monoclonal antibody AM1-2E10; assay: as above; type: binding
# Procedure: as §11, §12, §13, §5, §14, §15, §16, §17, §9
# [12] = tested on: Mouse polyclonal sera (AM19-1-DVS (1) - KLH immunogen); assay: Inhibition ELISA, AM19-1-DVS (1) HSA coated plate, mouse polyclonal sera; type: binding
# Procedure: as §1, §2, §3, §4, §5, §6, §7, §10, §9
# MoAb AM19-1-7E12-2 = assay: Inhibition ELISA with AM19-1-DVS (1) coated ELISA plates, MoAb; type: binding, mouse; conditions: AM19-1-7F12-2
# Procedure: as §1, §2, §3, §4, §5, §6, §7, §10, §9
# MoAb AM19-1-7E12-1 = assay: as above; type: binding, mouse; conditions: AM19-1-7E12-1 TCS
# Procedure: as §1, §2, §3, §4, §5, §6, §7, §10, §9
# [13] = tested on: Mouse polyclonal sera (AM9-9-DVS-KLH immunogen); assay: Inhibition ELISA, AM19-9-DVS-HSA coated plate, mouse polyclonal sera; type: binding
# Procedure: as §1, §2, §3, §4, §5, §6, §7, §10, §9
# [14] = tested on: Mouse polyclonal sera (CSA-DVS-KLH immunogen); assay: Inhibition ELISA, CSA-DVS-HSA coated plate, mouse polyclonal sera; type: binding
# Procedure: as §1, §2, §3, §4, §5, §6, §7, §10, §9
# [15] = tested on: Mouse polyclonal sera (AM19-1-DVS (1) - KLH immunogen); assay: Antigen panel (direct) ELISA, mouse polyclonal sera; type: binding; conditions: Mice 1 and 2
# Procedure: as §11, §12, §13, §5, §14, §15, §16, §17, §9
# (§18) These serum samples were assayed by direct ELISA for antibody titre to specific haptens.
# [16] = tested on: Mouse polyclonal sera (AM19-1-DVS (2) - KLH immunogen); assay: as above; type: binding; conditions: Mice 3 and 4
# Procedure: as §11, §12, §13, §5, §14, §15, §16, §17, §9, §18
# MoAb AM1-7F5 = assay: Inhibition ELISA to the CSA-DVS-HSA conjugate, MoAb; type: binding, mouse
# Procedure: as §1, §2, §3, §4, §5, §6, §7, §10, §9
# MoAb AM1-2E10 = assay: as above; type: binding, mouse
# Procedure: as §1, §2, §3, §4, §5, §6, §7, §10, §9
# [17] = tested on: Mouse monoclonal antibody AM19-1-7E12-1; assay: Antigen panel (direct) ELISA, MoAb tissue culture supernatant; type: binding
# Procedure: as §11, §12, §13, §5, §14, §15, §16, §17, §9
# (§19) Spleen cells from mice immunized with the AM19-1-DVS (1) conjugate have been used to prepare MoAb secreting hybridoma cells.
# [18] = tested on: Mouse monoclonal antibody AM19-1-7E12-2; assay: as above; type: binding
# Procedure: as §11, §12, §13, §5, §14, §15, §16, §17, §9, §19
# [19] = tested on: Mouse polyclonal sera (AM1-DVS-KLH immunogen); assay: Inhibition ELISA to the CSA-DVS-HSA conjugate, mouse polyclonal sera; type: binding
# Procedure: as §1, §2, §3, §4, §5, §6, §7, §10, §9
molecule,measurement,setting,value
"KLH: keyhole limpet hemocyanin, protein carrier",Percent Inhibition of TCS,"MoAb CSA-2G9; CSA-2G9 TCS, Table 16, CSA-DVS-HSA conjugate",4.8%
same,Percent Inhibition of TCS,"MoAb CSA-1H6; CSA-1H6 TCS, Table 16, CSA-DVS-HSA conjugate",0%
same,Percent Inhibition,[1]; Mouse 5,0%
same,Percent Inhibition,[1]; Mouse 6,0%
same,antibody response to the KLH carrier,[2],significant response
same,antibody titres to the KLH carrier protein,[3],significant antibody titres
same,antibody titres to the KLH carrier,[4],Significant antibody titres
same,antibody response to the KLH carrier,[5],significant response
same,Percent Inhibition,[6],0%
same,Percent Inhibition,[7]; Mouse 3,0%
same,Percent Inhibition,[7]; Mouse 4,0%
same,Percent reactivity,"[8]; CSA-1H6, OD to test antigen / OD to CSA-DVS-HSA × 100",0%
same,OD,"[8]; CSA-1H6 TCS, coated test antigen",0
same,Percent reactivity,"[9]; AM1-7F5, OD to test antigen / OD to CSA-DVS-HSA × 100",0%
same,OD,"[9]; AM1-7F5 TCS, coated test antigen",0
same,Percent reactivity,"[10]; CSA-2G9, OD to test antigen / OD to CSA-DVS-HSA × 100",0%
same,OD,"[10]; CSA-2G9 TCS, coated test antigen",0.026
same,Percent reactivity,"[11]; AM1-2E10, OD to test antigen / OD to CSA-DVS-HSA × 100",3.9%
same,OD,"[11]; AM1-2E10 TCS, coated test antigen",0.061
same,Percent Inhibition,[12]; Mouse 1,0%
same,Percent Inhibition,[12]; Mouse 2,0%
same,Percent Inhibition of TCS,MoAb AM19-1-7E12-2,4.3%
same,Percent Inhibition of TCS,MoAb AM19-1-7E12-1,3.8%
same,Percent Inhibition,[13]; Mouse 1,12.3%
same,Percent Inhibition,[13]; Mouse 2,35.8%
same,Percent Inhibition,"[14]; Mouse 1, inhibiting AG conc 0.156 μg/100 μL",0%
same,Percent Inhibition,"[14]; Mouse 1, inhibiting AG conc 0.313 μg/100 μL",0%
same,Percent Inhibition,"[14]; Mouse 1, inhibiting AG conc 1.25 μg/100 μL",0%
same,Percent Inhibition,"[14]; Mouse 1, inhibiting AG conc 5 μg/100 μL",0%
same,Percent Inhibition,"[14]; Mouse 1, inhibiting AG conc 10 μg/100 μL",0%
same,Percent Inhibition,"[14]; Mouse 2, inhibiting AG conc 0.156 μg/100 μL",0%
same,Percent Inhibition,"[14]; Mouse 2, inhibiting AG conc 0.313 μg/100 μL",0%
same,Percent Inhibition,"[14]; Mouse 2, inhibiting AG conc 1.25 μg/100 μL",0%
same,Percent Inhibition,"[14]; Mouse 2, inhibiting AG conc 5 μg/100 μL",0%
same,Percent Inhibition,"[14]; Mouse 2, inhibiting AG conc 10 μg/100 μL",0%
same,antibody titres to the KLH carrier protein,[15],significant antibody titres
same,antibody titres to the KLH carrier protein,[16],significant antibody titres
same,Percent Inhibition of TCS,"MoAb AM1-7F5; AM1-7F51, TCS, Table 18, CSA-DVS-HSA coated plate",22.5%
same,Percent Inhibition of TCS,"MoAb AM1-2E10; AM1-2E10 TCS, Table 18, CSA-DVS-HSA coated plate",0%
same,Percent reactivity,"[17]; AM19-1-7E12-1, OD to test antigen / OD to AM19-1-DVS (1)-HSA × 100",0%
same,OD,"[17]; AM19-1-7E12-1 TCS, coated test antigen",0.023
same,Percent reactivity,"[18]; AM19-1-7E12-2, OD to test antigen / OD to AM19-1-DVS (1)-HSA × 100",0%
same,OD,"[18]; AM19-1-7E12-2 TCS, coated test antigen",0
same,Percent Inhibition,[19]; Mouse 1,8.9%
same,Percent Inhibition,[19]; Mouse 2,5.8%
C=CCC1C=C(C)CC(C)CC(OC)C2OC(O)(C(=O)C(=O)N3CCCCC3C(=O)OC(C(C)=CC3CCC(O)C(OC)C3)C(C)C(O)CC1=NO)C(C)CC2OC (stereo not shown) [III],Percent Inhibition,"MoAb CSA-2G9; CSA-2G9, Table 24, CSA, CSG and CSA derivative inhibitors",21.9%
same,Percent Inhibition,"MoAb CSA-1H6; CSA-1H6, Table 24, CSA, CSG and CSA derivative inhibitors",5.5%
same,Percent Inhibition,"MoAb AM1-7F5; AM1-7F5, Table 24, CSA, CSG and CSA derivative inhibitors",16.6%
same,Percent Inhibition,"MoAb AM1-2E10; AM1-2E10, Table 24, CSA, CSG and CSA derivative inhibitors",17.8%
